Data: publication PMC3375835 (Tetrahedron letters, 2012)

Key:
Type in all cases: cell-based
HIV-1NL4–3 = assay: Anti-HIV activity against HIV-1NL4–3 infected MT-4 cells; details: for EC50 (concentration of the test sample that was effective to suppress HIV replication by 50%): '-' = No activity (footnote b); for EC50: read-out: EC50 (concentration of the test sample that was effective to suppress HIV replication by 50%), '-' = No activity (footnote b)
[1] = Cytotoxicity to mock-infected MT-4 cells; details: human
mock-infected MT-4 cells = assay: Cytotoxicity to mock-infected MT-4 cells; details: read-out: CC50 (concentration of test sample that was cytotoxic to 50% of the mock-infected cells)

SMILES: Cc1cn([C@H]2C[C@H](N=[N+]=[N-])[C@@H](CO)O2)c(=O)[nH]c1=O [AZT, 3′-azido-3′-deoxythymidine, reference compound]
- SI (Selectivity index = CC50/EC50) (HIV-1NL4–3; CC50/EC50): 1385
- CC50 [1]: 140 µM

SMILES: C=C(C)[C@@H]1CC[C@]2(C(=O)O)CC[C@]3(C)[C@H](CC[C@@H]4[C@@]5(C)CC[C@H](OC(=O)CC(C)(C)C(=O)O)C(C)(C)[C@@H]5CC[C@]43C)[C@@H]12 [Bevirimat (14), 3-O-(3′,3′-dimethylsuccinyl)betulinic acid, reference compound]
- CC50 [1]: 13.2 µM

SMILES: C#CCOC1CCC2(C)C(CCC3(C)C2CCC2C4C(C(=C)C)CCC4(CO[Si](C)(C)C(C)(C)C)CCC23C)C1(C)C (stereo not drawn) [Compound 2]
- EC50 (concentration of the test sample that was effective to suppress HIV replication by 50%) (HIV-1NL4–3): - ^b

SMILES: C#CCOC(=O)OC1CCC2(C)C(CCC3(C)C2CCC2C4C(C(=C)C)CCC4(CO[Si](C)(C)C(C)(C)C)CCC23C)C1(C)C (stereo not drawn) [Compound 3]
- EC50 (concentration of the test sample that was effective to suppress HIV replication by 50%) (HIV-1NL4–3): -

SMILES: C#CCOC1CCC2(C)C(CCC3(C)C2CCC2C4C(C(=C)C)CCC4(CO)CCC23C)C1(C)C (stereo not drawn) [Compound 4]
- EC50 (concentration of the test sample that was effective to suppress HIV replication by 50%) (HIV-1NL4–3): -

SMILES: C#CCOC(=O)OC1CCC2(C)C(CCC3(C)C2CCC2C4C(C(=C)C)CCC4(CO)CCC23C)C1(C)C (stereo not drawn) [Compound 5]
- EC50 (concentration of the test sample that was effective to suppress HIV replication by 50%) (HIV-1NL4–3): -

SMILES: C#CCOC1CCC2(C)C(CCC3(C)C2CCC2C4C(C(=C)C)CCC4(COC(=O)CC(C)(C)C(=O)O)CCC23C)C1(C)C (stereo not drawn) [Compound 7]
- EC50 (concentration of the test sample that was effective to suppress HIV replication by 50%) (HIV-1NL4–3): -

SMILES: C=C(C)C1CCC2(CO[Si](C)(C)C(C)(C)C)CCC3(C)C(CCC4C5(C)CCC(OC(=O)OCc6cn(C7CC(n8cc(C)c(=O)[nH]c8=O)OC7CO)nn6)C(C)(C)C5CCC43C)C12 (stereo not drawn) [Compound 9]
- EC50 (concentration of the test sample that was effective to suppress HIV replication by 50%) (HIV-1NL4–3): inactive and -

SMILES: C=C(C)C1CCC2(COC(=O)CC(C)(C)C(=O)O)CCC3(C)C(CCC4C5(C)CCC(OCc6cn(C7CC(n8cc(C)c(=O)[nH]c8=O)OC7CO)nn6)C(C)(C)C5CCC43C)C12 (stereo not drawn) [Compound 13]
- EC50 (HIV-1NL4–3): 0.35 µM
- CC50 (mock-infected MT-4 cells): > 4.6 µM

SMILES: C#CCOC(=O)[C@]12CC[C@@H](C(=C)C)[C@@H]1[C@H]1CC[C@@H]3[C@@]4(C)CC[C@H](OC(=O)CC(C)(C)C(=O)O)C(C)(C)[C@@H]4CC[C@@]3(C)[C@]1(C)CC2 [Compound 15]
- EC50 (HIV-1NL4–3): 0.067 µM
- CC50 (mock-infected MT-4 cells): 15.3 µM

SMILES: C=C(C)[C@@H]1CC[C@]2(C(=O)OCc3cn([C@H]4C[C@H](n5cc(C)c(=O)[nH]c5=O)O[C@@H]4CO)nn3)CC[C@]3(C)[C@H](CC[C@@H]4[C@@]5(C)CC[C@H](OC(=O)CC(C)(C)C(=O)O)C(C)(C)[C@@H]5CC[C@]43C)[C@@H]12 [Compound 16]
- EC50 (HIV-1NL4–3): 0.1 µM
- CC50 (mock-infected MT-4 cells): 11.2 µM
